Test results reported in patent publication US9776992B2, “1-oxo-1,2-dihydroisoquinolin-7-yl-(5-substituted-thiophen-2-yl)-sulfonamide compounds, formulations containing those compounds, and their use as AICARFT inhibitors in the treatment of cancers” (Eli Lilly and Company, priority 2014, dated 2017).

Experiments:
[1] = test system: human colorectal adenocarcinoma cell line HCT-116 mouse xenograft; test: Antitumor efficacy in HCT-116 mouse xenograft tumor model; format: in vivo; settings: for % T/C: HCT-116 xenograft, Day 23, Delta T/C, * = P<0.05
Description: (§1) In vivo studies are performed using female athymic nude mice (Harlan) with a bodyweight of 23-28 g at first measurement. Upon receipt and throughout the study, the animals are housed 5 animals per cage in appropriately sized solid-bottom cages with contact bedding. The animal room is maintained on a 12-hour light/dark cycle. Animals are acclimated for 14 days prior to implantation of the NCI-H460 or HCT-116 cells on low folate diet (Teklad 130451) ad libitum and autoclaved tap water is provided ad libitum. The HCT-116 and NCI-H460 cell line are obtained from American Type Culture Collection (ATCC) and is cultured following ATCC instructions. Cells used for implantation are harvested during log phase growth and suspended in serum-free media. The suspended cells are then diluted 1:1 with BD Matrigel Matrix (ref 354234). Cells are injected in the right flank with 5.0E+06 cells (0.2 mL cell/Matrigel suspension). Tumors are monitored beginning day 8 post implant. Animals are redistributed into groups with 5-6 animals per group utilizing proprietary randomization software when average tumor volume reaches 200 mm^3. Groups 1-12 are maintained on a low folate diet (Teklad 130451) and folic acid (Sigma F8798 Lot #SLBH0909V) administration at doses listed in the Table 19 began 28 hours prior to dose initiation and 4 hours prior to each dose. Folic acid is formulated weekly in PBS and dosed via oral gavage at 0.2 mL. Groups 13-16 are placed on standard chow (Teklad 2920X) at randomization. The compound is formulated weekly in 20% HPBCD in Phosphate buffer pH 8 with one molar equivalent NaOH added. The formulated compound is administered at the doses and schedules indicated in Table 19 by oral gavage (0.2 mL). The vehicle is also given QD as the control arm of the study. Tumor volume and body weight are measured 2× a week. Tumor volume is determined by caliper measurements (mm) and using the formula for an ellipsoid sphere: tumor volume (mm^3)=length×width^2/2, where length and width refer to the larger and smaller perpendicular dimensions collected at each measurement. The animal behavior and animal health are monitored daily during dosing period.
The statistical analysis of the tumor volume data begins with a data transformation to a log scale to equalize variance across time and treatment groups. The log volume data are analyzed with a two-way repeated measures analysis of variance by time and treatment using the MIXED procedures in SAS software (Version 9.3). The correlation model for the repeated measures is Spatial Power. Treated groups are compared to the control group at each time point. The MIXED procedure is also used separately for each treatment group to calculate adjusted means and standard errors at each time point. Both analyses account for the autocorrelation within each animal and the loss of data that occurs when animals with large tumors are removed from the study early. The adjusted means and standard errors are plotted for each treatment group vs time. The analysis comparing the treated groups to the control groups at each time point uses the log 10 tumor volumes and produces the p-values. For statistical significance of p-values shown, “*”=P<0.05.
Delta T/C, % calculation is used. Equations: T=Final tumor volume in treated group; T0=Baseline tumor volume in treated group (assumed to be same as C0); C=Final tumor volume in control group; C0=Baseline tumor volume in control group (assumed to be same as T0); Delta T/C, %=100*(T−T0)/(C−C0)

[2] = test system: human lung carcinoma NCI-H460 mouse xenograft; test: Antitumor efficacy in NCI-H460 mouse xenograft tumor model; format: in vivo; settings: for % T/C: NCI-H460 xenograft, no folic acid, Day 20, Delta T/C, * = P<0.05
Description: as §1, with “Folic acid is formulated weekly in PBS and dosed via oral gavage at 0.2 mL. Groups 13-16 are placed on standard chow (Teklad 2920X) at randomization. The compound is formulated weekly in 20% HPBCD in Phosphate buffer pH 8 with one molar equivalent NaOH added. The formulated compound is administered at the doses and schedules indicated in Table 19 by oral gavage (0.2 mL). The vehicle is also given QD as the control arm of the study.” left out
The statistical analysis of the tumor volume data begins with a data transformation to a log scale to equalize variance across time and treatment groups. The log volume data are analyzed with a two-way repeated measures analysis of variance by time and treatment using the MIXED procedures in SAS software (Version 9.3). […]

AICARFT = AICARFT in vivo target inhibition (IVTI) assay in mouse plasma (AICAr)
Description: as §1
The in vivo effects of AICARFT inhibition on the circulating concentration of AICAr is determined by liquid chromatography-mass spectrometry (LC-MS). Standard curves containing AICAr at concentrations of 1 ng/mL-2000 ng/mL are prepared in 40 mM ammonium acetate, pH 4. Plasma samples (75 μL) or standards (75 μL) are combined with 300 μL of an internal standard solution containing 13C5-AICAr (20 ng/mL) and formic acid (1%) in ACN. The samples are vortex mixed for 5 minutes and passed through a Phenomenex Phree 96-well phospholipid removal SPE plate. The eluents are collected in a 96-well plate and dried under heated nitrogen at 50° C. Each sample is reconstituted in 50 μL of 40 mM ammonium acetate, pH 4. The plates are sealed and vortexed for 5 minutes prior to analysis. The LC-MS method utilized a Shimadzu Prominence 20A HPLC system connected to an AB Sciex 5500™ or an AB Sciex 6500™ triple quadrupole mass spectrometer running Analyst® software. Extracted samples are separated using two Thermo Hypercarb™ Javelin guard columns (2.1×20 mm, 5 μm) connected in series with an injection volume of 15 μL and a flow rate of 1 mL/minute. Mobile phase A is a 95:5 mixture of 50 mM ammonium formate, pH 4 and ACN. Mobile phase B is a 70:30 mixture of ACN and MeOH spiked with 0.3% formic acid and 2% concentrated ammonium hydroxide solution (v/v). For mouse plasma samples the following gradient is used: 0 minutes, 0% B; 0.25 minutes, 0% B; 2.00 minutes, 25% B; 2.01 minutes, 95% B; 3.50 minutes, 95% B; 3.51 minutes, 0% B; 4.50 minutes, stop. For dog plasma samples the following gradient is used to remove endogenous interferences: 0 minutes, 0% B; 0.25 minutes, 0% B; 5.99 minutes, 20% B; 6.00 minutes, 95% B; 8.00 minutes, 95% B; 8.01 minutes, 0% B; 10.00 minutes, stop. […]

[3] = test system: large cell lung cancer NCI-H460; test: Low folate in vitro proliferation assay, NCI-H460; format: cell-based; settings: Homo sapiens, 168 h; NCI-H460, low folate media, 7 days
Description: Allow cells to attach overnight. […] Final concentration of compounds will be 1×. […] Dose cells with compounds of interest for 7 days. […] Determine % inhibition for each sample (see Table 18).

## O=c1[nH]ccc2cc(F)c(NS(=O)(=O)c3ccc(N4CC[C@@H](O)C4)s3)cc12 [Example 1, N-(6-Fluoro-1-oxo-1,2-dihydroisoquinolin-7-yl)-5-[(3R)-3-hydroxypyrrolidin-1-yl]thiophene-2-sulfonamide]
[1]; HCT-116 xenograft tumors, QD continuously for 2 weeks
  in vivo anticancer activity (in words): demonstrates in vivo anticancer activity
[1]; Group 6, low folate diet, folic acid 0.75 mg/kg (QD × 15, orally), 10 mg/kg QD × 14, orally
  % T/C: 65* %
[1]; Group 7, low folate diet, folic acid 0.75 mg/kg (QD × 15, orally), 30 mg/kg QD × 14, orally
  % T/C: 57* %
[1]; Group 14, standard chow, no folic acid, 10 mg/kg QD × 14, orally
  % T/C: 112%
[1]; Group 15, standard chow, no folic acid, 30 mg/kg QD × 14, orally
  % T/C: 49%
[2]; NCI-H460 xenograft tumors, QD continuously for 2 weeks
  in vivo anticancer activity (in words): demonstrates in vivo anticancer activity
[2]; Group 14, standard chow, 10 mg/kg QD × 13, orally
  % T/C: 113%
[2]; Group 15, standard chow, 30 mg/kg QD × 13, orally
  % T/C: 42* %
AICARFT; HCT-116 xenograft mice, Group 6, low folate diet, folic acid 0.75 mg/kg (QD × 15, orally), 10 mg/kg QD × 14, orally, Day 23
  Mean Plasma AICAr: 88 nM
AICARFT; HCT-116 xenograft mice, Group 7, low folate diet, folic acid 0.75 mg/kg (QD × 15, orally), 30 mg/kg QD × 14, orally, Day 23
  Mean Plasma AICAr: 181 nM
AICARFT; HCT-116 xenograft mice, Group 14, standard chow, no folic acid, 10 mg/kg QD × 14, orally, Day 23
  Mean Plasma AICAr: 44 nM
AICARFT; HCT-116 xenograft mice, Group 15, standard chow, no folic acid, 30 mg/kg QD × 14, orally, Day 23
  Mean Plasma AICAr: 154 nM
AICARFT; NCI-H460 xenograft mice, Group 14, standard chow, no folic acid, 10 mg/kg QD × 13, orally, Day 20
  Mean Plasma AICAr: 368 nM
AICARFT; NCI-H460 xenograft mice, Group 15, standard chow, no folic acid, 30 mg/kg QD × 13, orally, Day 20
  Mean Plasma AICAr: 1400 nM
[3]
  IC50: 20 nM
